The values below come from PMC7071032, “In Vitro Inhibition of Hsp90 Protein by Benzothiazoloquinazolinequinones Is Enhanced in The Presence of Ascorbate. A Preliminary In Vivo Antiproliferative Study” (Molecules, 2020).

Each structure is given as a SMILES string. Where two headings read alike, the source gives them in different places.

In test [1] the test system is panel of cancer cells (T24, DU-145, MCF-7). The test can be described thus: MTT reduction assay, panel of cancer cells (means, ranges, selectivity index). The test is classed as cell-based, human. The conditions noted are these: for IC50: Homo sapiens; for MSI: mean selective index: IC50 values of fibroblasts (AG 1523)/IC50 values of tumor cells (T24, DU-145, MCF-7). The procedure:
(§1) As positive control, two well-known anticancer drugs, namely TAM and 5-FU, were also tested on these cell lines. […] Regarding 5-FU, it is a broad-spectrum chemotherapeutic drug used to treat a variety of malignancies. Particularly, it has a long history of use against bladder tumors.
Such a selective index was calculated as the ratio between IC50 values of healthy cells/IC50 values in cancer cells.
(§2) Cells were seeded into 96-well plates at a density of 10,000 cells/well for 24 h and then incubated for 48 h with or without the quinone derivatives. […] The IC50 values were determined using the GraphPad Prism software (San Diego, CA, USA). Further incubation procedures and optical density reading of colored solutions were performed according to Benites et al..

Test [2] has as its system non-tumor fibroblasts AG 1523. The test can be described thus: MTT reduction assay, non-tumor fibroblasts. The test is classed as cell-based. The conditions noted are these: Homo sapiens, AG1523, 48 h incubation, read-out: IC50 ± SEM AG 1523. The procedure:
as §1
(§3) Cell culture conditions were the same as reported elsewhere. Briefly, cell lines were kept in DMEM containing 10% fetal calf serum. In addition, 100 U/mL of penicillin and 100 µg/mL streptomycin from Gibco (Grand Island, NY, USA) were further added. Cell cultures were kept at 37 °C under an atmosphere of 95% air/5% CO2 and 100% humidity. Sodium L-ascorbate, menadione (vitamin K3), TAM, and 5-FU were purchased from Sigma (St. Louis, MO, USA).
(§4) The cytotoxicity of the quinones was assessed by following the reduction of MTT (3-(4,5-dimethylthiazol-2-yl)-2,5-diphenyltetrazolium bromide) to formazan blue and the capability of cancer cells to proliferate, namely a clonogenic assay.
as §2

The test system of test [3] is MCF-7 (breast) cells. The test can be described thus: MTT reduction assay, MCF-7 cells. The format is cell-based. The conditions noted are these: Homo sapiens, MCF7, 48 h incubation, read-out: IC50 ± SEM MCF-7. The procedure: as §1, §3, §4, §2
Test [4] concerns T24 (bladder) cells. The test can be described thus: MTT reduction assay, T24 cells. The conditions noted are these: Homo sapiens, T-24, 48 h incubation, read-out: IC50 ± SEM T24. The format is cell-based. The procedure:
as §1, §3, §4, §2

Test [5] deals with DU-145 (prostate) cells. The test can be described thus: MTT reduction assay, DU-145 cells. The format is cell-based. As to conditions: Homo sapiens, DU-145, 48 h, read-out: IC50 ± SEM DU-145. The procedure: as §1, §3, §4, §2
Test [6] relates to MCF-7 (breast) cells. Also on record: method as in doi:10.1016/j.tetlet.2015.07.034. The conditions noted are these: MTT, data from Valderrama et al. ref 16, read-out: IC50 ± SEM MCF-7; cited from earlier work.
In test [7] the test system is DU-145 (prostate) cells. Also on record: method as in doi:10.1016/j.tetlet.2015.07.034. As to conditions: read-out: IC50 ± SEM DU-145, MTT, data from Valderrama et al. ref 16; cited from earlier work.
The test system of test [8] is T24 (bladder) cells. On the set-up: method as in doi:10.1016/j.tetlet.2015.07.034. As to conditions: MTT, data from Valderrama et al. ref 16, read-out: IC50 ± SEM T24; cited from earlier work.
Test [9] concerns T24 cells. The test can be described thus: Clonogenic assay. The test is classed as cell-based, human. As to conditions: for cell growth compared to control conditions (100%), in brackets / number of colony forming units (CFUs): T24 cells; for number of colony forming units (CFUs): 24 h treatment, 10 days growth. The procedure:
Indeed, at a dose of 0.25 µM, it decreased from 195 to 72 the number of CFUs. Otherwise, it inhibits the proliferation of T24 cells by 63% as compared to the control untreated cells. […] The percentages of the observed cell growth compared to control conditions (100%) are indicated in brackets. […] Cells were allowed to adhere overnight, and then treated with quinones for 24 h. Afterward, they were washed with warm PBS, given fresh medium, and allowed to grow for 10 days. Clonogenic survival was determined by fixing and staining colonies using crystal violet and further counting their number. The number of colonies calculated under control conditions was set as 100%.

Setting [10] is: read-out: mean IC50 value calculated from the individual IC50 values of the three cancer cell lines.
[11] abbreviates: read-out: IC50 values on the panel of cancer cells (range over cell lines).

On to `O=c1[nH]cc(F)c(=O)[nH]1` [5-Fluorouracil, 5-fluorouracil, reference compound], for which the IC50 in test [1] (setting [10]) was 7.8 µM.

As for `CC1(O)C2=C(N=C3Sc4ccccc4N31)C(=O)c1ccccc1C2=O` (centres unmarked) [Compound 11], the IC50 in [2] is 10.7 ± 0.57 µM; in [3] it was 6.83 ± 1.29 µM; in [4] it was 4.65 ± 0.43 µM; in test [5], 9.59 ± 0.32 µM. Further, in test [1], the “MSI: mean selective index” value amounted to 1.52.

As to `CCCC1(O)C2=C(N=C3Sc4ccccc4N31)C(=O)c1ccccc1C2=O` (centres unmarked) [Compound 12], the IC50 in test [6] is 4.25 ± 0.5 µM; in [2], 8.82 ± 0.27 µM; in test [7], 11.6 ± 2.05 µM; in test [8], 4.86 ± 0.5 µM. For the same molecule, the “MSI: mean selective index” value in test [1] was found to be 1.28.

`CCCCCC1(O)C2=C(N=C3Sc4ccccc4N31)C(=O)c1ccccc1C2=O` (centres unmarked) [Compound 13]: the IC50 in test [2] stood at 8.55 ± 0.35 µM; in [3] it was 5.83 ± 0.25 µM; in [4] it was 6.85 ± 0.54 µM; in test [5] it was 7.99 ± 0.17 µM. Besides, the “MSI: mean selective index” value in test [1] was 1.24.

With `CCCCCCCC1(O)C2=C(N=C3Sc4ccccc4N31)C(=O)c1ccccc1C2=O` (centres unmarked) [Compound 14], the IC50 in [2] is 7.28 ± 0.39 µM; in [3], 6.84 ± 0.79 µM; in [4], 8.42 ± 1.27 µM; in test [5] it was 9.04 ± 0.69 µM. In addition, in [1], the “MSI: mean selective index” value worked out at 0.90.

Consider `CCCC1(O)C2=C(N=C3Sc4cc(C)ccc4N31)C(=O)c1ccccc1C2=O` (centres unmarked) [Compound 16], for which the IC50 in test [6] is 1.77 ± 0.26 µM; in test [2], 3.46 ± 0.08 µM; in test [7], 0.85 ± 0.1 µM; in test [8], 1.36 ± 0.15 µM; in test [1] (setting [11]), 0.11 to 1.77 µM; in test [1] (setting [10]), 1.1 to 1.61 µM. In addition, the “cell growth compared to control conditions (100%), in brackets” value (“cell growth … (100%), in brackets” for short) in test [9] (0.025 µM) is recorded as 101%; in [9] (0.125 µM), 107%; in test [9] (0.25 µM), 94%; in test [9] (1.25 µM), 39%; in test [9] (2.5 µM) it was 29%; in test [9] (5.0 µM), 11%. In addition, the “number of colony forming units (CFUs)” value in test [9] (0.025 µM) stood at 204 ± 19 CFUs; in test [9] (0.125 µM), 216 ± 29 CFUs; in test [9] (0.25 µM), 189 ± 12 CFUs; in test [9] (1.25 µM) it was 79 ± 9 CFUs; in [9] (2.5 µM), 58 ± 12 CFUs; in test [9] (5.0 µM) it was 23 ± 15 CFUs. Moreover, the “MSI: mean selective index” value in test [1] is recorded as 2.62.

On to `CCCCCCCC1(O)C2=C(N=C3Sc4cc(C)ccc4N31)C(=O)c1ccccc1C2=O` (centres unmarked) [Compound 18], for which the IC50 worked out at 6.02 ± 0.29 µM in test [2], 7.12 ± 0.65 µM in test [3], 5.6 ± 0.29 µM in [4] and 7.55 ± 0.69 µM in test [5]. Further, in test [1], the “MSI: mean selective index” value is reported as 0.89.

Turning to `COc1ccc2c(c1)SC1=NC3=C(C(=O)c4ccccc4C3=O)C(C)(O)N12` (centres unmarked) [Compound 19], the IC50 was 2.72 ± 0.18 µM in test [6]; 6.4 ± 0.46 µM in [2]; 0.79 ± 0.11 µM in test [7]; 1.32 ± 0.11 µM in test [8]; 0.11 to 1.77 µM in test [1] (setting [11]); 1.1 to 1.61 µM in test [1] (setting [10]). For the same molecule, in test [9] (Homo sapiens, T-24, clonogenic assay, 0.25 µM, read-out: inhibition of the proliferation of T24 cells as compared to control untreated cells), the inhibition at 0.25 µM was found to be 28%. Also, the “cell growth … (100%), in brackets” value in [9] (0.025 µM) was determined as 102%; in [9] (0.125 µM), 96%; in test [9] (0.25 µM), 72%; in [9] (1.25 µM), 36%; in test [9] (2.5 µM), 16%; in test [9] (5.0 µM), 18%. Also, the “number of colony forming units (CFUs)” value is listed as 195 ± 16 CFUs in [9] (0.025 µM); 183 ± 21 CFUs in test [9] (0.125 µM); 138 ± 18 CFUs in [9] (0.25 µM); 68 ± 12 CFUs in [9] (1.25 µM); 30 ± 16 CFUs in test [9] (2.5 µM); 35 ± 11 CFUs in [9] (5.0 µM). Also, the “MSI: mean selective index” value in test [1] is 3.97.

In the case of `CCCC1(O)C2=C(N=C3Sc4cc(OC)ccc4N31)C(=O)c1ccccc1C2=O` (centres unmarked) [Compound 20], the IC50 in [2] was 4.99 ± 0.59 µM; in test [3], 1.67 ± 0.12 µM; in [4], 1.89 ± 0.15 µM; in test [5] it was 1.13 ± 0.05 µM; in test [1] (setting [11]) it was 0.11 to 1.77 µM; in test [1] (setting [10]), 1.1 to 1.61 µM. The “cell growth … (100%), in brackets” value was found to be 96% in test [9] (0.025 µM); 100% in test [9] (0.125 µM); 106% in test [9] (0.25 µM); 55% in test [9] (1.25 µM); 42% in test [9] (2.5 µM); 22% in test [9] (5.0 µM). Moreover, the “number of colony forming units (CFUs)” value is listed as 204 ± 17 CFUs in test [9] (0.025 µM); 214 ± 25 CFUs in [9] (0.125 µM); 225 ± 19 CFUs in [9] (0.25 µM); 118 ± 22 CFUs in test [9] (1.25 µM); 89 ± 10 CFUs in test [9] (2.5 µM); 46 ± 7 CFUs in [9] (5.0 µM). For the same molecule, in [1], the “MSI: mean selective index” value is listed as 3.17.

Take `CCCCCC1(O)C2=C(N=C3Sc4cc(OC)ccc4N31)C(=O)c1ccccc1C2=O` (centres unmarked) [Compound 21]: the IC50 is 11.3 ± 1.1 µM in [2], 4.63 ± 0.3 µM in [3], 7.09 ± 0.14 µM in [4] and 7.43 ± 0.28 µM in test [5]. Further, the “MSI: mean selective index” value in [1] turned out to be 1.78.

Turning to `CCCCCCCC1(O)C2=C(N=C3Sc4cc(OC)ccc4N31)C(=O)c1ccccc1C2=O` (centres unmarked) [Compound 22], the IC50 in test [2] was found to be 5.97 ± 0.24 µM; in [3] it was 3.52 ± 0.32 µM; in test [4] it was 5.95 ± 0.45 µM; in test [5] it was 6.62 ± 0.19 µM. Also, in test [1], the “MSI: mean selective index” value is reported as 1.11.

As to `O=C1C2=C(C(=O)c3ccccc31)C(O)(c1ccco1)N1C(=N2)Sc2ccccc21` (centres unmarked) [Compound 23], the IC50 in test [2] is 21.7 ± 0.27 µM; in test [3] it was 8.62 ± 0.72 µM; in [4], 9.29 ± 0.77 µM; in test [5], 19.9 ± 0.5 µM; in test [1] (setting [10]), 10.5 to 12.6 µM. Moreover, the “MSI: mean selective index” value in test [1] came out at 1.72.

Regarding `COc1ccc2c(c1)SC1=NC3=C(C(=O)c4ccccc4C3=O)C(O)(c3ccco3)N12` (centres unmarked) [Compound 24], the IC50 in [2] was 90.1 ± 1.21 µM; in [3], 11.7 ± 0.65 µM; in [4], 10.4 ± 1 µM; in test [5] it was 4.69 ± 0.33 µM. Moreover, in [1], the “MSI: mean selective index” value is listed as 10.1.

As to `O=C1C2=C(C(=O)c3ccccc31)C(O)(c1cccs1)N1C(=N2)Sc2ccccc21` (centres unmarked) [Compound 25], the IC50 in [2] is 12.8 ± 0.31 µM; in test [3], 7.32 ± 0.36 µM; in test [4] it was 8.72 ± 0.41 µM; in test [5], 7.85 ± 0.6 µM. Moreover, the “MSI: mean selective index” value in [1] came to 1.60.

Turning to `O=C1C2=C(C(=O)c3ccccc31)C(O)(c1cccs1)N1C(=N2)Sc2cc(F)ccc21` (centres unmarked) [Compound 26], the IC50 in test [2] is 19.8 ± 0.83 µM; in test [3] it was 7.46 ± 0.53 µM; in [4], 13.4 ± 2.37 µM; in test [5], 10.8 ± 1.01 µM; in test [1] (setting [10]), 10.5 to 12.6 µM. For the same molecule, the “MSI: mean selective index” value in [1] stood at 1.88.
